Values quoted from earlier work, collected in patent US7014865B1, “Natural formulation for the treatment and prevention of depression, containing St. John's Wort and derivatives of dihydro- and tetrahydrofolic acid” (Merck Patent GmbH, priority 1998, dated 2006).

Assays:
Details in all cases: in vitro
[1] = system: uptake of GABA
[2] = system: uptake of L-glutamate
[3] = system: uptake of serotonin
[4] = system: uptake of noradrenaline
[5] = system: uptake of dopamine

hyperforin
potent inhibitor: inhibition of uptake of GABA [1] | inhibition of uptake of L-glutamate [2] | inhibition of uptake of serotonin [3] | inhibition of uptake of noradrenaline [4] | inhibition of uptake of dopamine [5]
